Measured values as given in patent US20040110821A1, “GAL3 receptor antagonists for the treatment of affective disorders” (priority 2002, published 2004).

How the values were obtained:
human GAL2 receptor = biological target: T1, human GAL2 receptor (Homo sapiens, UniProt O43603); test: Radioligand binding at cloned human GAL2 receptor; conditions: indolones, Table 4, read-out: Ki (nM) GalR 2
T1 construct: expressed in transfected cells
T1 sequence (O43603 1-387): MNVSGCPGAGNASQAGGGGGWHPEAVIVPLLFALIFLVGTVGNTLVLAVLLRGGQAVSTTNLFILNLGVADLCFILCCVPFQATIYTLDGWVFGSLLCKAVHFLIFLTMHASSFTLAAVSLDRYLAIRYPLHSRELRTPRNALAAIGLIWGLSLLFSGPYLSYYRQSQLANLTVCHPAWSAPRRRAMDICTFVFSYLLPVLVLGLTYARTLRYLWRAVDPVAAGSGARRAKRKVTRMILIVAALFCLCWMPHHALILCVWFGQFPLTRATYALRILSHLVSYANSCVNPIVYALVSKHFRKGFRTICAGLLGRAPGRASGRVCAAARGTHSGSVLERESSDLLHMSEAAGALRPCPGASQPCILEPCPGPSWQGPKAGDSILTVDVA
Method: The present invention provides for a method of determining the binding affinity of a GAL3 antagonist, wherein the GAL3 antagonist is dissolved in a “suitable solvent”. A “suitable solvent” means one which permits the measurement of binding affinity of the GAL3 antagonist to the human GAL3 receptor at concentrations less than 1 μM, preferably less than 100 nM. Examples of solvents include, but are not limited to, DMSO, ethanol, N,N-dimethylacetamide, or water. For indolones, the preferred solvent is 3% DMSO (final concentration in the assay). For pyrimidines, the preferred solvent is 1% ethanol/0.09% polypuronic acid F-127 (final concentration in the assay). For any other type of compounds, the preferred solvent is the solvent which permits the measurement of binding affinity of a GAL3 antagonist at the lowest concentration. Once a suitable solvent is ascertained for the binding assay of the human GAL3 receptor, the same solvent is used in assays to determine the binding affinity for instance, at the GAL1 receptor.
The binding properties of the pyrimidines of the present invention were evaluated at the cloned human galanin receptors, GAL1, GAL2, and GAL3, using protocols described herein.
The binding properties of the indolones of the present invention were evaluated at the cloned human galanin receptors, GAL1, GAL2, and GAL3, using protocols described herein.
LM(tk-) cells were stably transfected with the human GAL1 or GAL3 receptor. CHO cells were stably transfected with the human GAL2 receptor.
cDNAs for the human and rat GAL1, and human and rat GAL3 receptors were transfected with a G-418 resistant gene into the mouse fibroblast LM(tk-) cell line by a calcium phosphate transfection method (Cullen, 1967). Stably transfected cells were selected with G-418. Human and rat GAL2 receptors were similarly transfected into CHO cells.
Membranes were harvested from stably transfected LM(tk-) cells. Adherent cells were washed twice in ice-cold phosphate buffered saline (138 mM NaCl, 8.1 mM Na2HPO4, 2.5 mM KCl, 1.2 mM KH2PO4, 0.9 mM CaCl2, 0.5 mM MgCl2, pH 7.4) and lysed by sonication in ice-cold sonication buffer (20 mM Tris-HCl, 5 mM EDTA, pH 7.7). Large particles and debris were cleared by low speed centrifugation (200×g, 5 min, 4° C.). Membranes were collected from the supernatant fraction by centrifugation (32,000×g, 18 min, 4° C.), washed with ice-cold hypotonic buffer, and collected again by centrifugation (32,000×g, 18 min, 4° C.). The final membrane pellet was resuspended by sonication into a small volume of ice-cold binding buffer (−1 ml for every 5 plates: 10 mM NaCl, 20 mM HEPES, 0.22 mM KH2PO4, 1.26 mM CaCl2, 0.81 mM MgSO4, pH 7.4). Protein concentration was measured by the Bradford method (Bradford, 1976) using Bio-Rad Reagent, with bovine serum albumin as a standard. Membranes were held on ice for up to one hour and used fresh, or flash frozen and stored in liquid nitrogen. Membranes were prepared similarly from CHO cells.
Galanin Receptors: Binding assays were performed according to the following published methods: human GAL3 (PCT International Publication No. WO 98/15570), human GAL1 (PCT International Publication No. WO 95/2260) human GAL2 (PCT International Publication No. WO 97/26853).
(§1) Binding data were analyzed using nonlinear regression and statistical techniques available in the GraphPAD Prism package (San Diego, Calif.). Enzymatic assay data were derived from a standard curve of reference compound data.

human 5HT1F receptor = biological target: T2, human 5HT1F receptor (Homo sapiens, UniProt P30939); test: Radioligand binding at human 5HT1F receptor; conditions: read-out: h5HT1F Ki
T2 construct: expressed in transfected cells
Method: Human 5HT1B, 5HT1D, 5HT1E, 5HT1F, and 5HT7 ReceDtors: The cell lysates of LM(tk-) clonal cell line stably transfected with the genes encoding each of these 5HT receptor-subtypes were prepared as described above. Cell membranes were suspended in 50 mM Tris-HCl buffer (pH 7.4 at 37° C.) containing 10 mM MgCl2, 0.2 mM EDTA, 10 µM pargyline, and 0.1% ascorbate. […] Nonspecific binding was determined in the presence of 10 μM serotonin. The bound radioligand was separated by filtration through GF/B filters using a cell harvester.
as §1

DA transporter = biological target: T3, DA transporter (Rattus norvegicus, UniProt P23977); test: Binding at native DA transporter; conditions: read-out: rDA Uptk Ki
T3 construct: native, tissue-derived transporters; from tissue
Method: The methods to determine binding affinity at native transporters are described in the following publications: 5HT transporter and NE transporter (Owens et al., 1997), and DA transporter (Javitch et al, 1984).
as §1

T2 sequence (P30939 whole entry): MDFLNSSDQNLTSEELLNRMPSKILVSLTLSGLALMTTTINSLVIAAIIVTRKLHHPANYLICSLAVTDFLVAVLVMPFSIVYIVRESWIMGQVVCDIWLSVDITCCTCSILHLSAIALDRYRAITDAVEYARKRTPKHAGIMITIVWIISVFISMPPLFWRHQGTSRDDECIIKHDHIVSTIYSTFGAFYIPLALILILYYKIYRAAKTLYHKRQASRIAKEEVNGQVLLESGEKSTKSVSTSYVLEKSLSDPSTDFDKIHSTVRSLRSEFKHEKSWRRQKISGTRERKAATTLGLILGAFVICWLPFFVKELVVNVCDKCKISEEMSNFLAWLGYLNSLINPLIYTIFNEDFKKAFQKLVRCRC
T3 sequence (P23977 whole entry): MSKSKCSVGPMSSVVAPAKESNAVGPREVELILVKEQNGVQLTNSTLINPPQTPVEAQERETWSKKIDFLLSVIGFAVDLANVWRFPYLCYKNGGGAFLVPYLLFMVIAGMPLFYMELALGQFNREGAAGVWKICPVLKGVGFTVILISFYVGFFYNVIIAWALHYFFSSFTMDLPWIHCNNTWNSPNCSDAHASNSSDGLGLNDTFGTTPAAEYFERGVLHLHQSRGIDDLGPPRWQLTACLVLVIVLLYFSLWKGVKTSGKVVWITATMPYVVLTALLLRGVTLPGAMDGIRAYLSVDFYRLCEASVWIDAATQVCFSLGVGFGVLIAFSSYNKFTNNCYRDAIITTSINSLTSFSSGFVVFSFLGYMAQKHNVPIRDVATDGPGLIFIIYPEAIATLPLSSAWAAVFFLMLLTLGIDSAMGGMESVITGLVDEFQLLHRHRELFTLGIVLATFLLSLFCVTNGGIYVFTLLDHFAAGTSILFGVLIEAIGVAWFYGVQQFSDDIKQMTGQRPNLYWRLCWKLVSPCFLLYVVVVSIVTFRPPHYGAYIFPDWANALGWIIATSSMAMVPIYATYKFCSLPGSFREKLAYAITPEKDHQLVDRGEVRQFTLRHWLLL

O=C1C(=Nc2cccc(C(F)(F)F)c2)c2ccccc2N1c1ccccc1 [Example 92, 1-PHENYL-3-[[3-(TRIFLUOROMETHYL)PHENYL]IMINO]-1,3-DIHYDRO-2H-INDOL-2-ONE]
Ki (human GAL2 receptor): > 10000 nM | Ki (human 5HT1F receptor): 5.29 µM | Ki (DA transporter): 17.8 µM
